Data from patent US7476675B2, “Quinolinone derivatives and uses thereof” (Roche Palo Alto LLC, priority 2003, dated 2009).
Where a name gives a salt, the structure may show the parent alone.

Key:
[1] = molecular target: T1, recombinant human 5-HT6 receptor (Homo sapiens, UniProt P50406); assay: Radioligand binding studies: competition for [3H]LSD binding in membranes of HEK293 cells expressing the receptor; settings: [3H]LSD (5 nM), HEK293 cell membranes, 60 min at 37° C., pH 7.4; read-out: pKi for 5-HT6 (converted)
T1 construct: expressed in transfected cells
T1 sequence (P50406 whole entry): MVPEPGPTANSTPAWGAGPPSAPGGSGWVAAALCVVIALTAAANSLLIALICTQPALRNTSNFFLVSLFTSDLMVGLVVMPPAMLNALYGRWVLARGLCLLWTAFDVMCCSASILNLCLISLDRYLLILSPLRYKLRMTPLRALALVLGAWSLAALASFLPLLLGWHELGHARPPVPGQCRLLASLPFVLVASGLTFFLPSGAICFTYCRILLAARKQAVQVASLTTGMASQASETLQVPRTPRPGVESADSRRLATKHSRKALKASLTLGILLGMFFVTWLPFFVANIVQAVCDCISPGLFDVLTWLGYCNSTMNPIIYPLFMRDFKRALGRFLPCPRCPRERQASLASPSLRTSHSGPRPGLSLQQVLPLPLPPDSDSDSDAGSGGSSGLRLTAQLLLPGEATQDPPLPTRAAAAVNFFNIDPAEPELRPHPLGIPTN
Description: The binding activity of compounds of this invention in vitro was determined as follows. Duplicate determinations of ligand affinity are made by competing for binding of [^3H]LSD in cell membranes derived from HEK293 cells stably expressing recombinant human 5-HT6 receptor. This cell line was prepared by the method described by Monsma et al., Molecular Pharmacology, Vol. 43 pp. 320-327 (1993).
All determinations were made in assay buffer containing 50 mM Tris-HCl, 10 mM MgSO4, 0.5 mM EDTA, 1 mM ascorbic acid, pH 7.4 at 37° C., in a 250 microliter reaction volume. Assay tubes containing [^3H] LSD (5 nM), competing ligand, and membrane were incubated in a shaking water bath for 60 min. at 37° C., filtered onto Packard GF-B plates (pre-soaked with 0.3% PEI) using a Packard 96 well cell harvester and washed 3 times in ice cold 50 mM Tris-HCl. Bound [^3H] LSD was determined as radioactive counts per minute using Packard TopCount.
Displacement of [^3H]LSD from the binding sites was quantified by fitting concentration-binding data to a 4-parameter logistic equation:
[formula] where Hill is the Hill slope, [ligand] is the concentration of competing radioligand and IC50 is the concentration of radioligand producing half-maximal specific binding of radioligand. The specific binding window is the difference between the Bmax and the basal parameters.

melting point [°C] | Ki [1] [nM] | Structure (SMILES)
149 to 150 |  | O=C1CCCc2ccccc2N1Cc1cccc(N2CCNCC2)c1 (as salt: maleate) [Compound 17, 1-(3-Piperazin-1-yl-benzyl)-1,3,4,5-tetrahydrobenzo[b]azepin-2-one]
 | ~1 | COc1cc(CN2C(=O)CCc3ccccc32)cc(N2CCNCC2)c1 [Compound 4, 1-(3-Methoxy-5-piperazin-1-yl-benzyl)-3,4-dihydro-1H-quinolin-2-one]
